Results as given in the supplement of paper PMC10307832.

Tests used:
Assay in all cases: relative viability (nuclei count vs DMSO), 5 days (fraction); higher = more cells survive
Veliparib + Trametinib = compound: C[C@]1(c2nc3c(C(N)=O)cccc3[nH]2)CCCN1 [Veliparib] + CC(=O)Nc1cccc(-n2c(=O)n(C3CC3)c(=O)c3c(Nc4ccc(I)cc4F)n(C)c(=O)c(C)c32)c1 [Trametinib] (partner 0.02 µM)
In short: (§1)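 Lung cancer cell lines in 1536-well plates were dosed by pin tool the day after seeding, either with one drug alone or with a fixed anchor-drug dose plus five library-drug doses (not always all listed) in √10 steps. After 5 days, cells were fixed and their nuclei stained in one step (final 0.05% Triton X-100, 1% formaldehyde, 1 ug/ml Hoechst), then counted on 4× images. Relative viability is the nuclei count in treated wells divided by that in vehicle wells. Values are medians of duplicate plates.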

Veliparib + AZD7762 = compound: C[C@]1(c2nc3c(C(N)=O)cccc3[nH]2)CCCN1 [Veliparib] + NC(=O)Nc1cc(-c2cccc(F)c2)sc1C(=O)N[C@H]1CCCNC1 [AZD7762] (partner 0.2 µM)
In short: as §1

[1] = compound: COC1=CC=C(C=C1)CN2C=CC3=C2C=C(C=C3)C(=O)NO + Nc1ncn([C@H]2C[C@H](O)[C@@H](CO)O2)c(=O)n1 [Decitabine] (partner 2 µM)
In short: as §1

[2] = compound: COC1=CC=C(C=C1)CN2C=CC3=C2C=C(C=C3)C(=O)NO + CS(=O)(=O)N1CCN(Cc2cc3nc(-c4cccc5[nH]ncc45)nc(N4CCOCC4)c3s2)CC1 [Pictilisib] (partner 1 µM)
In short: as §1

Cell Line	relative viability (Veliparib + Trametinib; first compound 0.02 µM)	relative viability (Veliparib + Trametinib; first compound 0.06325 µM)	relative viability (Veliparib + Trametinib; first compound 0.2 µM)	relative viability (Veliparib + Trametinib; first compound 0.6325 µM)	relative viability (Veliparib + Trametinib; first compound 2 µM)	relative viability (Veliparib + AZD7762; first compound 0.02 µM)	relative viability (Veliparib + AZD7762; first compound 0.06325 µM)	relative viability (Veliparib + AZD7762; first compound 0.2 µM)	relative viability (Veliparib + AZD7762; first compound 0.6325 µM)	relative viability (Veliparib + AZD7762; first compound 2 µM)	relative viability ([1]; first compound 0.08 µM)	relative viability ([1]; first compound 0.253 µM)	relative viability ([1]; first compound 0.8 µM)	relative viability ([1]; first compound 2.53 µM)	relative viability ([1]; first compound 8 µM)	relative viability ([2]; first compound 0.08 µM)	relative viability ([2]; first compound 0.253 µM)	relative viability ([2]; first compound 0.8 µM)	relative viability ([2]; first compound 2.53 µM)	relative viability ([2]; first compound 8 µM)
HCC-827	0.59	0.514	0.529	0.504	0.516	0.26	0.335	0.2	0.236	0.222	0.292	0.271	0.356	0.287	0.308	0.934	0.921	1.07	1.15	0.927
HOP-62	0.375	0.322	0.351	0.39	0.407	0.567	0.65	0.621	0.463	0.598	0.173	0.217	0.216	0.27	0.244	0.249	0.885	0.988	0.908	0.396
IA-LM																0.296	0.388	0.373	0.371	0.23
LC-2-ad	0.897	0.904	0.914	0.891	0.912	0.606	0.822	0.865	0.876	0.801	0.853	0.871	0.81	0.773	0.816	0.437	0.597	0.547	0.439	0.427
LCLC-97TM1	0.221	0.178	0.202	0.183	0.198	0.164	0.264	0.191	0.274	0.31		0.224	0.236	0.225	0.181		0.283	0.205	0.227	0.123
LCLC-103H	0.764	0.606	0.668	0.74	0.718	0.794	0.73	0.702	0.75	0.687	0.731	0.812	0.761	0.779	0.681	0.526	0.621	0.586	0.648	0.532
LK-2	0.773	0.773	0.788	0.763	0.766	0.32	0.367	0.461	0.465	0.492		0.303	0.295	0.296	0.224		0.524	0.598	0.507	0.488
NCI-H520	0.749	0.68	0.721	0.646	0.705						0.517	0.481	0.484	0.495	0.551	0.265	0.266	0.314	0.276	0.271
NCI-H522	0.716	0.608	0.805	0.771	1.01	0.805	0.896	0.846	0.87	0.873		0.649	0.606	0.63	0.765					
NCI-H661	0.525	0.646	0.584	0.543	0.64							0.591	0.61	0.519	0.44		0.358	0.35	0.375	0.318
NCI-H1299																0.834	1.03	0.77	0.658	0.593
NCI-H1563																0.547	0.656	0.645	0.706	0.618
NCI-H1648	0.631			0.557	0.516	0.762			0.711	0.685	0.435	0.553	0.554	0.539	0.46					
NCI-H1650	0.335	0.374	0.58	0.497	0.508						0.358	0.407	0.423	0.392	0.328	0.173	0.595	0.567	0.541	0.32
NCI-H1703						0.0963	0.11	0.112	0.138	0.13							0.259	0.221	0.256	0.147
NCI-H2009	0.289	0.291	0.316	0.302	0.33						0.331	0.352	0.37	0.36	0.365	0.601	0.836	0.91	0.788	0.604
NCI-H2023		0.636	0.563	0.563	0.477						0.201	0.234	0.272	0.244	0.173	0.105	0.239	0.227	0.236	0.202
NCI-H2228	0.362	0.57	0.597	0.523	0.368											0.375	0.326	0.536	0.46	0.251
NCI-H2342	0.76	0.81	0.701	0.742	0.736	0.392	0.543	0.417	0.471	0.405	0.76	0.733	0.707	0.799	0.769					
SK-LU-1	0.561	0.519	0.607	0.524	0.415						0.611	0.616	0.634	0.753	0.531	0.468	0.586	0.613	0.517	0.505
SK-MES-1	0.531	0.54	0.525	0.53	0.627						0.397	0.377	0.436	0.369	0.343	0.343	0.384	0.368	0.36	0.332
SW 900		0.75	0.938	0.621	0.828		0.575	0.526	0.59	0.591	0.441	0.403	0.446	0.423	0.411					
UMC-11	0.7	0.759	0.707	0.682	0.635							0.369	0.595	0.575	0.509	0.28	0.82	0.864	0.756	0.748
